Measured values as given in patent publication US20030044946A1 (priority 2001, published 2003).
Where two headings read alike, the source gives them in different places.

Experiments:
aconitase = aconitase inactivation after treatment of yeast cells; type: cell-based, Saccharomyces cerevisiae; details: wild type cells; 1 μM antimycin A or 1 mM paraquat; data not shown
Experimental: Cells were inoculated at an OD600 of 0.1 in SDC medium and harvested at the indicated times. Whole cell extracts were obtained by glass bead lysis under argon in 50 mM Tris 7.2, 150 mM NaCl, 5 mM EDTA, and 0.2 mM PMSF with an equal volume of 0.5 mm acid washed glass beads, and vortexing for 6 cycles of 30 seconds followed by 2 minutes of cooling. After centrifugation, the supernatants were aliquoted, flash frozen, and stored at −70° C. Because of the instability of 4Fe4S clusters in air, the extraction procedures were performed as rapidly as possible, under an inert atmosphere (argon). Furthermore, aliquots kept at −70° C. were only thawed immediately before the assay. Aconitase activity was measured spectrophotometrically as described (S. Melov, et al., Science 289, 1567-9 (2000)). Briefly, the linear absorbance change at 240 nm (cis-aconitate disappearance) was followed in a reaction mixture containing 1 mM cis-aconitate, 0.5 M NaCl, and 0.1 M Tris 7.4. For iron-sulfur cluster reactivation experiments, 1 mM ferric sulfate and 1 mM sodium sulfide (Na2S) was added to the cuvette containing all the reagents required for the aconitase assay. Activity was measured as described above.

ras2Δ (EG252) cells = details: ras2 mutants; paraquat 1 mM, 7-day treatment
[1] = system: wild type cells (strain DBY746)

Compound | effect on aconitase (aconitase) | initial viability retained after paraquat treatment (ras2Δ (EG252) cells) | effect on survival (viability) of wild type cells [1] | toxicity to wild type cells [1] | survival after paraquat treatment ([1]; Saccharomyces cerevisiae) | toxicity to sod2Δ mutants (sod2Δ mutants; effect on life span) | toxicity to sod2Δ mutants (sod2Δ mutants)
C[n+]1ccc(-c2cc[n+](C)cc2)cc1 [paraquat] | reversibly inactivates aconitase | over 70% | early viability loss | toxic | 5% | particularly toxic | –
antimycin A | reversibly inactivates aconitase | – | early viability loss | toxic | – | – | particularly toxic
